The values that follow come from patent publication US12116362B2, “Monocyclic compounds useful as GPR120 modulators” (Valo Health, Inc., priority 2016, dated 2024).

One experiment deals with T1, human GPR120 (Homo sapiens, UniProt Q5NUL3).
T1 construct: host or cells: CHO-K1
T1 sequence (Q5NUL3 1-377 isoform Q5NUL3-1): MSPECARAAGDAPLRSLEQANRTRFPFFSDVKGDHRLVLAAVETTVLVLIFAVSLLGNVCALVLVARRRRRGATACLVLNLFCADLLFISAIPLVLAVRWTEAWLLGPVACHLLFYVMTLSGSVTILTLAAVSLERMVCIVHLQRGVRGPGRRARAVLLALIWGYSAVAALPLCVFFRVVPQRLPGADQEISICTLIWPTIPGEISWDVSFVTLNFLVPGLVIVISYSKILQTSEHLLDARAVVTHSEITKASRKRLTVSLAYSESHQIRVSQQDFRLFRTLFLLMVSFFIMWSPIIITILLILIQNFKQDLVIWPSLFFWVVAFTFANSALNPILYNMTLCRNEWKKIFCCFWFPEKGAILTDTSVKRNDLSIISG
T1 sequence (P32121 whole entry partner): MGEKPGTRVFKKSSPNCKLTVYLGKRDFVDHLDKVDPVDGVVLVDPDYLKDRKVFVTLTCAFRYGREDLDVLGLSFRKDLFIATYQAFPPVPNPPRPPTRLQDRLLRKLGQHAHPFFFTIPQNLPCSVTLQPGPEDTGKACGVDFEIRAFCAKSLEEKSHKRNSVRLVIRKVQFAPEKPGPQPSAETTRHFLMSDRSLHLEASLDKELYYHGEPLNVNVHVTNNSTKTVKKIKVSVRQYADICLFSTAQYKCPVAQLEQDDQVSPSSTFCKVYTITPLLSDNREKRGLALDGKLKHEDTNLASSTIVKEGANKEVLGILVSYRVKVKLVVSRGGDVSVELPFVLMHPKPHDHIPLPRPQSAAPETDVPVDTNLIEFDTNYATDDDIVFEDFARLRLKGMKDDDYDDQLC
Description: GPR120 β-Arrestin Recruitment Assay (PathHunter, CHO-K1 cells). It counts as cell-based. Conditions: CHO-K1; @ 10 uM; read-out: percent activation at a single concentration (printed in the β-Arr pEC50 column). An excerpt:
This in vitro assay tests compounds' ability to activate intracellular signaling via 3-Arrestin recruitment to heterologously expressed human GPR120. This functional cellular assay utilizes enzyme fragment complementation with β-galactosidlase (β-gal) as a functional reporter (DiscoveRx PathlHunter® β-Arrestin assay platform). The human (GPR120 receptor (GenBank accession Number NM_181745) was fused in frame with the small enzyme fragment ProLink™ and co-expressed in CHO-K1 cells with a fusion protein of β-Arrestin 2 and the larger, N-terminal deletion mutant of β-gal. Activation by a GPR120 agonist stimulates binding of β-arrestin to the ProLink-tagged GPCR and forces complementation of the two enzyme fragments, resulting in the formation of an active β-gal enzyme. This interaction leads to an increase in enzyme activity that can be measured using chemiluminescent PathHunter® Detection Reagents.
One day prior to the assay, cells were seeded in a total volume of 20 μl of growth medium into white walled 384-well microplates and incubated at 37° C./5% CO2 overnight. On the day of the assay, growth medium was removed and 20 μl assay buffer (HBSS+10 mM HEPES+0.1% heat-inactivated BSA) were added to each well.
Test compounds were dissolved in 100% DMSO to a concentration of 10 mM to provide stock solutions. Serial dilutions were performed from stock solutions into assay buffer to obtain intermediate concentrations of 5-fold higher than the concentrations to be tested. 5 μl of the 5× compound solutions were added to the cells and the assay plates were incubated at 37° C. for 90 minutes. The final concentration of compounds tested in the assay ranged from 1.5 nM to 100 μM. Following incubation, 12.5 μl of PathHunter® detection reagent were added to each well, and plates were incubated at room temperature for 60 minutes. Chemiluminescence was read using an EnVision plate reader (PerkinElmer), raw data were expressed as relative light units (RLU).
To determine agonist potencies (EC50 values), non-linear least-squares curve fits of the raw data (RLU) were performed in the GraphPad Prism software package, using the 4-parameter model with variable Hill Slope:
Reported below in Table 1 are pEC50 values (pEC50=−log(EC50) from curve fit) for compounds of Formula I in this assay, β-Arr pEC50 Alternatively, percent activation at a single concentration is reported.
(In general: Arrestin recruitment assays detect the binding of arrestin to an activated receptor.)
In the case of `CC1(C)c2ccccc2CN1c1ccnc(Oc2cccnc2)n1` [Compound 2], the activation at 10 µM was 18%.

As to `c1cncc(Oc2nccc(N3Cc4ccccc4C3)n2)c1` [Compound 13], the activation at 10 µM amounted to 9%.

On to `c1cncc(Oc2ccnc(N3Cc4ccccc4C3)n2)c1` [Compound 14], for which the activation at 10 µM came to 8%.

Regarding `O=S1(=O)c2ccccc2CN1c1ccnc(Oc2ccncc2)n1` [Compound 15], the activation at 10 µM came to 3%.

Take `Cc1ncccc1Oc1nccc(N2Cc3ccccc3S2(=O)=O)n1` [Compound 17]: the activation at 10 µM was determined as 4%.

As to `CC(=O)Nc1cccc(Oc2nccc(N3Cc4ccccc4S3(=O)=O)n2)c1` [Compound 24], the activation at 10 µM stood at 1%.

Turning to `O=S1(=O)c2ccccc2CN1c1ccnc(Oc2cncnc2)n1` [Compound 25], the activation at 10 µM came out at 16%.

Consider `O=S1(=O)c2ccccc2CN1c1ccnc(Oc2ccnc3ccccc23)n1` [Compound 27], for which the activation at 10 µM is 9%.

Regarding `O=S1(=O)c2ccccc2CN1c1ccnc(-n2ccc3ccncc32)n1` [Compound 30], the activation at 10 µM came out at 17%.

On to `O=S1(=O)c2ccccc2CN1c1ccnc(-n2cnc3ccccc32)n1` [Compound 31], for which the activation at 10 µM came to 11%.

Consider `O=S1(=O)c2ccccc2CN1c1ccnc(OCc2cccnc2)n1` [Compound 71], for which the activation at 10 µM amounted to 1%.

Staying with this experiment, now noted: pEC50=−log(EC50) from curve fit; CHO-K1 cells, 90 min incubation; read-out: β-Arr pEC50 (converted).
Turning to `O=S1(=O)c2cccc(Cl)c2CN1c1ccnc(Oc2cccnc2)n1` [Compound 3], the EC50 is more than 31.6 µM.

As for `O=S1(=O)c2cc(Cl)ccc2CN1c1ccnc(Oc2cccnc2)n1` [Compound 4], the EC50 was more than 31.6 µM.

For `COc1ccc2c(c1Cl)S(=O)(=O)N(c1ccnc(Oc3cccnc3)n1)C2` [Compound 5], the EC50 is more than 10 µM.

For the molecule `CC1(C)c2ccccc2S(=O)(=O)N1c1ccnc(Oc2cccnc2)n1` [Compound 6], the EC50 is more than 10 µM.

Take `O=S1(=O)c2ccccc2CN1c1ccnc(OC2CC(F)(F)C2)n1` [Compound 7]: the EC50 is 12.6 µM.

On to `CC1c2ccccc2S(=O)(=O)N1c1ccnc(Oc2cccnc2)n1` (stereo not drawn) [Compound 8], for which the EC50 was 12.6 µM.

For `O=C1c2cccnc2CN1c1ccnc(Oc2cccnc2)n1` [Compound 9], the EC50 is more than 31.6 µM.

`O=C1c2ncccc2CN1c1ccnc(Oc2cccnc2)n1` [Compound 10]: the EC50 was more than 31.6 µM.

Take `COc1ccc2c(c1)C(=O)N(c1ccnc(Oc3cccnc3)n1)C2` [Compound 11]: the EC50 was more than 10 µM.

`COc1ccc2c(c1)CN(c1ccnc(Oc3cccnc3)n1)C2=O` [Compound 12]: the EC50 is more than 31.6 µM.

On to `Cc1ccc(Oc2nccc(N3Cc4ccccc4S3(=O)=O)n2)cn1` [Compound 18], for which the EC50 is more than 10 µM.

Turning to `CN(C)c1cccc(Oc2nccc(N3Cc4ccccc4S3(=O)=O)n2)c1` [Compound 23], the EC50 is 3.16 µM.

For the molecule `O=S1(=O)c2ccccc2CN1c1ccnc(Oc2cnc3ccccc3c2)n1` [Compound 26], the EC50 is 12.6 µM.

As to `O=C1c2ccccc2CN1c1ccnc(Oc2cccnc2)n1` [Compound 28], the EC50 is 12.6 µM.

Take `O=S1(=O)c2ccccc2CN1c1ccnc(-n2ccc3ccccc32)n1` [Compound 29]: the EC50 is 15.8 µM.

Take `O=S1(=O)c2ccccc2CN1c1ccnc(Oc2cncc3ccccc23)n1` [Compound 32]: the EC50 was 25.1 µM.

For `O=S1(=O)c2ccccc2CN1c1ccnc(Oc2cc(Cl)cc(Cl)c2)n1` [Compound 38], the EC50 was 15.8 µM.

Turning to `COc1cccc(Oc2nccc(N3Cc4ccccc4S3(=O)=O)n2)c1` [Compound 39], the EC50 is more than 10 µM.

Take `N#Cc1ccc(Oc2nccc(N3Cc4ccccc4S3(=O)=O)n2)cc1` [Compound 40]: the EC50 is more than 10 µM.

On to `O=S1(=O)c2ccccc2CN1c1ccnc(Oc2ccc(Oc3ccccc3)cc2)n1` [Compound 43], for which the EC50 was more than 31.6 µM.

As to `Cc1cc(Cl)cc(Oc2nccc(N3Cc4ccccc4S3(=O)=O)n2)c1` [Compound 46], the EC50 was 5.01 µM.

Turning to `O=S1(=O)c2ccccc2CN1c1ccnc(Oc2ccc(C(F)(F)F)cc2)n1` [Compound 47], the EC50 was 6.31 µM.

For the molecule `O=S1(=O)c2ccccc2CN1c1ccnc(Oc2ccc(-n3cncn3)cc2)n1` [Compound 48], the EC50 is more than 10 µM.

For `O=S1(=O)c2ccccc2CN1c1ccnc(Oc2ccc(OC(F)(F)F)cc2)n1` [Compound 49], the EC50 is 2.51 µM.

As to `O=S1(=O)c2ccccc2CN1c1ccnc(Oc2cncc(Br)c2)n1` [Compound 52], the EC50 is 12.6 µM.

Consider `Cc1cc(C)c(Oc2nccc(N3Cc4ccccc4S3(=O)=O)n2)cn1` [Compound 53], for which the EC50 is more than 10 µM.

Turning to `O=S1(=O)c2ccccc2CN1c1ccnc(Oc2ccc(Cl)nc2)n1` [Compound 54], the EC50 was more than 10 µM.

As for `N#Cc1ccc(Oc2nccc(N3Cc4ccccc4S3(=O)=O)n2)cn1` [Compound 55], the EC50 is more than 10 µM.

For the molecule `O=S1(=O)c2ccccc2CN1c1ccnc(Oc2ccc(OC(F)(F)F)cc2Cl)n1` [Compound 57], the EC50 was 1 µM.

Take `O=S1(=O)c2ccccc2CN1c1ccnc(OC2CCNCC2)n1` [Compound 62]: the EC50 was more than 10 µM.

`O=S1(=O)c2ccccc2CN1c1ccnc(OC2CCOCC2)n1` [Compound 64]: the EC50 is more than 10 µM.

With `O=S1(=O)c2ccccc2CN1c1ccnc(OC2CCOC2)n1` (stereo not drawn) [Compound 65], the EC50 was more than 10 µM.

In the case of `CC(=O)N1CCCC(Oc2nccc(N3Cc4ccccc4S3(=O)=O)n2)C1` (stereo not drawn) [Compound 66], the EC50 is more than 10 µM.

Regarding `O=S1(=O)c2ccccc2CN1c1ccnc(OCC2CCCCC2)n1` [Compound 68], the EC50 was 2.51 µM.

Consider `O=S1(=O)c2ccccc2CN1c1ccnc(OCC2CCC2)n1` [Compound 69], for which the EC50 is 3.98 µM.

Regarding `O=S1(=O)c2ccccc2CN1c1ccnc(OCc2ccccc2)n1` [Compound 70], the EC50 is 15.8 µM.

With `O=S1(=O)c2ccccc2CN1c1ccnc(OCc2ccncc2)n1` [Compound 73], the EC50 was more than 10 µM.

Consider `CN1CCC(Oc2nccc(N3Cc4ccccc4S3(=O)=O)n2)CC1` [Compound 74], for which the EC50 was more than 31.6 µM.

Consider `NC(=O)COc1nccc(N2Cc3ccccc3S2(=O)=O)n1` [Compound 75], for which the EC50 is more than 31.6 µM.

Take `O=C(COc1nccc(N2Cc3ccccc3S2(=O)=O)n1)Nc1ccccc1` [Compound 76]: the EC50 was more than 31.6 µM.

On to `N#Cc1cc(N2Cc3ccccc3S2(=O)=O)nc(Oc2cccnc2)n1` [Compound 81], for which the EC50 was 6.31 µM.

Regarding `CC(C)c1cc(N2Cc3ccccc3S2(=O)=O)nc(Oc2cccnc2)n1` [Compound 84], the EC50 was more than 10 µM.

Take `COc1ccc(-c2cc(N3Cc4ccccc4S3(=O)=O)nc(Oc3cccnc3)n2)cc1` [Compound 85]: the EC50 is more than 31.6 µM.

`CNC(=O)c1cc(N2Cc3ccccc3S2(=O)=O)nc(Oc2cccnc2)n1` [Compound 88]: the EC50 is more than 10 µM.

For `COc1ccc2c(c1)S(=O)(=O)N(c1nccc(Oc3cccnc3)n1)C2` [Compound 90], the EC50 was 12.6 µM.

In the case of `Cc1cc(N2Cc3ccccc3S2(=O)=O)nc(OC2CC(F)(F)C2)n1` [Compound 91], the EC50 was 3.98 µM.

`Cc1cc(OC2CC(F)(F)C2)nc(N2Cc3ccccc3S2(=O)=O)n1` [Compound 92]: the EC50 was 3.16 µM.

Take `O=S1(=O)c2ccccc2CN1c1nccc(OC2CC(F)(F)C2)n1` [Compound 94]: the EC50 is more than 10 µM.

As to `COc1cc(N2Cc3ccccc3S2(=O)=O)nc(Oc2ccc(Cl)cc2)n1` [Compound 95], the EC50 was 0.398 µM.

Turning to `COc1cc(N2Cc3ccccc3S2(=O)=O)nc(Oc2ccccc2)n1` [Compound 100], the EC50 is 0.158 µM.

For the molecule `COc1cc(Oc2ccccc2)nc(N2Cc3ccccc3S2(=O)=O)n1` [Compound 102], the EC50 was 0.794 µM.

As for `O=S1(=O)c2ccccc2CN1c1cc(C(F)(F)F)nc(Oc2ccc(F)cc2)n1` [Compound 103], the EC50 is 2 µM.

Regarding `Cc1cc(Oc2ccc(F)cc2)nc(N2Cc3ccccc3S2(=O)=O)n1` [Compound 104], the EC50 was 3.98 µM.

As to `Cc1cc(Oc2ccccc2)nc(N2Cc3ccccc3S2(=O)=O)n1` [Compound 105], the EC50 is 2.51 µM.

On to `Cc1cc(N2Cc3ccccc3S2(=O)=O)nc(Oc2ccccc2)n1` [Compound 107], for which the EC50 is 0.794 µM.

`CN1CCN(c2cc(N3Cc4ccccc4S3(=O)=O)nc(Oc3cccnc3)n2)CC1` [Compound 108]: the EC50 is more than 31.6 µM.

Turning to `CS(=O)(=O)N1CC(Oc2nccc(N3Cc4ccccc4S3(=O)=O)n2)C1` [Compound 109], the EC50 was more than 31.6 µM.

`CC(=O)N1CC(Oc2nccc(N3Cc4ccccc4S3(=O)=O)n2)C1` [Compound 110]: the EC50 was more than 31.6 µM.
